What was measured:
[1] = test system: L1210V lymphocytic leukemia; test: L1210V Lymphocytic Leukemia Tumor System; type: in vivo, mice; details: for Indefinite Survivors: 45 day survivors; for Toxic Deaths: deaths/mice in group
Method: The study testing the efficacy of these compounds against L1210V leukemia was initiated by an IP inoculation of 1×10^6 cells. Treatment was begun 24 hours after inoculation. The response to therapy was determined by comparing the mean life span of the ten treated animals to that of the ten control animals; prolongation of life in the treated animals beyond that of controls is expressed as a percentage. In the Table, column 1 gives the example number of the compound tested; column 2, the experiment number; column 3, the dose level of the compound in mg/kg; column 4, the route of administration; column 5, the dosage schedule, that is, the days on which the compound was administered to the mice; column 6, the average increase in life span of the treated mice as compared to the control mice; column 7, the toxic deaths over the number of mice in each group; and column 8, the indefinite survivors, that is, the number of 45 day survivors in each group.

CA755 adenocarcinoma = CA755 adenocarcinoma tumor model; type: in vivo, mice (C57BL/6); details: IP, Days 1,5,9
From the text: CA755--The adenocarcinoma 755 is an undifferentiated mammary carcinoma which was obtained in 1980 from the Division of Cancer Treatment, N.C.I., tumor bank maintained at E.G. and G. Mason Research (Worchester, Mass.). First passage tumor was stored in liquid nitrogen using standard techniques. The transplanted tumor was re-established from the tumor bank every six months or as needed. The tumor is maintained by serial passage once a week in C57BL/6 female mice (Jackson Laboratory; Bar Harbor, Me.).
(§1) The tumor was removed from passage animals and minced into 1 to 3 mm square fragments using sterile techniques. Tumor pieces were checked for sterility using both Antibiotic Medium 1 and Brain Heart Infusion (Difco; Detroit, Mich.). Recipient mice were shaved and tumor pieces were implanted subcutaneously in the axillary region by trocar. Drug therapy on the appropriate schedule was initiated on the day after tumor implant. The compound was dissolved in saline for all experiments. All animals were weighed at the beginning and end of drug treatment. Food and water were provided ad libitum. On days 10 to 12, two dimensional measurements (width and length) of all tumors were taken using vernier calipers. Tumor weights were calculated from these measurements using the following formula:
(§2) Tumor Weight (mg)=Tumor Length (mm)×Tumor Width (mm)^2 /2
(§3) For all data, the tumor weight was rounded to the nearest tenth of a gram for analysis. No group is included in the analysis for therapeutic activity in which deaths attributable to drug toxicity exceeded 30 percent of the treated group.
(§4) In Table 3 which follows, column 1 gives the example number of the compound tested; column 2 provides the tumor system; column 3, the dose level; column 4, the route administered; column 5, the dosage schedule; column 6, the percent inhibition of the tumor; and column 7, the toxic deaths observed prior to completion of the study.

[2] = test system: P1534J lymphatic leukemia; test: P1534J lymphatic leukemia tumor model; type: in vivo, mice (DBA/2); details: IP, Days 1,5,9
From the text: P1534J--The P1534J lymphocytic leukemia (solid form) was obtained in 1973 from the Jackson Laboratory (Bar Harbor, Me.). First passage tumor was stored in liquid nitrogen using standard techniques. Subsequent replenishment of the tumor bank with this tumor was accomplished from first passage tumor. The transplanted tumor was re-established from the tumor bank every six months or as needed. The tumor is maintained by serial passage once a week in DBA/2 mice (Charles River; Wilmington, Mass.).
as §1, §2, §3, §4

[3] = test system: X5563 plasma cell myeloma; test: X5563 plasma cell myeloma tumor model; type: in vivo, mice (C3H); details: IP, Days 1,5,9
From the text: X5563 Myeloma--the tumor is maintained in C3H mice.
as §1, §2, §3, §4

[4] = Experiment 1, 1.25 mg/kg, IP, Days 1,5,9
[5] = Experiment 1, 2.5 mg/kg, IP, Days 1,5,9
[6] = Experiment 1, 5.0 mg/kg, IP, Days 1,5,9
[7] = Experiment 1, 10.0 mg/kg, IP, Days 1,5,9
[8] = Experiment 1, 20.0 mg/kg, IP, Days 1,5,9
[9] = Experiment 2, 0.5 mg/kg, IP, Daily for 10 Days
[10] = Experiment 2, 1.0 mg/kg, IP, Daily for 10 Days
[11] = Experiment 2, 2.0 mg/kg, IP, Daily for 10 Days
[12] = Experiment 3, 25.0 mg/kg, IP, Day 1 only
[13] = Experiment 3, 50.0 mg/kg, IP, Day 1 only
[14] = Experiment 3, 100.0 mg/kg, IP, Day 1 only
[15] = Experiment 3, 200.0 mg/kg, IP, Day 1 only
[16] = Experiment 4, 0.5 mg/kg, PO, Daily for 10 days
[17] = Experiment 4, 1.0 mg/kg, PO, Daily for 10 days
[18] = Experiment 4, 2.0 mg/kg, PO, Daily for 10 days
[19] = Experiment 4, 4.0 mg/kg, PO, Daily for 10 days
[20] = Experiment 5, 0.5 mg/kg, IP, Daily for 9 days
[21] = Experiment 5, 1.0 mg/kg, IP, Daily for 9 days
[22] = Experiment 5, 2.0 mg/kg, IP, Daily for 9 days
[23] = Experiment 5, 4.0 mg/kg, IP, Daily for 9 days

For `Nc1ccn(C2O[C@H](CO)[C@@H](O)C2(F)F)c(=O)n1` (stereo partly drawn) [Example 1, 1-(4-Amino-2-oxo-1H-pyrimidin-1-yl)-2-desoxy-2,2-difluororibose], which “Percent Increase Life Span” value [1, 4] is on record?
The value was 50%.

What about the “Indefinite Survivors” value [1, 4] of the same compound?
Its value is 0.

What about the “Toxic Deaths” value [1, 4] of the same compound?
The value was 0/10.

And the “Percent Increase Life Span” value [1, 5]?
Its value is 60%.

And the “Indefinite Survivors” value [1, 5]?
Its value is 0.

What about the “Toxic Deaths” value [1, 5] of the same compound?
The value was 0/10.

What about the “Percent Increase Life Span” value [1, 6] of the same compound?
Its value is 66%.

What about the “Indefinite Survivors” value [1, 6] of the same compound?
The value was 0.

What about the “Toxic Deaths” value [1, 6] of the same compound?
The value was 0/10.

And the “Percent Increase Life Span” value [1, 7]?
The value was 66%.

And the “Indefinite Survivors” value [1, 7]?
The value was 0.

And the “Toxic Deaths” value [1, 7]?
Its value is 1/10.

And the “Percent Increase Life Span” value [1, 8]?
The value was 60%.

And the “Indefinite Survivors” value [1, 8]?
Its value is 0.

And the “Toxic Deaths” value [1, 8]?
The value was 0/10.

What about the “Percent Increase Life Span” value [1, 9] of the same compound?
Its value is 13%.

And the “Indefinite Survivors” value [1, 9]?
Its value is 0.

And the “Toxic Deaths” value [1, 9]?
The value was 0/10.

And the “Percent Increase Life Span” value [1, 10]?
The value was 0%.

And the “Indefinite Survivors” value [1, 10]?
The value was 0.

What about the “Toxic Deaths” value [1, 10] of the same compound?
The value was 0/10.

What about the “Percent Increase Life Span” value [1, 11] of the same compound?
The value was 0%.

And the “Indefinite Survivors” value [1, 11]?
Its value is 0.

And the “Toxic Deaths” value [1, 11]?
The value was 0/10.

What about the “Percent Increase Life Span” value [1, 12] of the same compound?
Its value is 23%.

What about the “Indefinite Survivors” value [1, 12] of the same compound?
The value was 0.

And the “Toxic Deaths” value [1, 12]?
Its value is 0/10.

And the “Percent Increase Life Span” value [1, 13]?
Its value is 30%.

What about the “Indefinite Survivors” value [1, 13] of the same compound?
The value was 0.

And the “Toxic Deaths” value [1, 13]?
The value was 0/10.

What about the “Percent Increase Life Span” value [1, 14] of the same compound?
Its value is 26%.

And the “Indefinite Survivors” value [1, 14]?
The value was 0.

And the “Toxic Deaths” value [1, 14]?
The value was 0/10.

What about the “Percent Increase Life Span” value [1, 15] of the same compound?
Its value is 34%.

What about the “Indefinite Survivors” value [1, 15] of the same compound?
Its value is 0.

What about the “Toxic Deaths” value [1, 15] of the same compound?
Its value is 0/10.

And the “Percent Increase Life Span” value [1, 16]?
Its value is 8%.

What about the “Indefinite Survivors” value [1, 16] of the same compound?
The value was 0.

What about the “Toxic Deaths” value [1, 16] of the same compound?
Its value is 0/10.

What about the “Percent Increase Life Span” value [1, 17] of the same compound?
Its value is 15%.

What about the “Indefinite Survivors” value [1, 17] of the same compound?
Its value is 0.

And the “Toxic Deaths” value [1, 17]?
The value was 0/10.

What about the “Percent Increase Life Span” value [1, 18] of the same compound?
The value was 18%.

And the “Indefinite Survivors” value [1, 18]?
Its value is 0.

What about the “Toxic Deaths” value [1, 18] of the same compound?
Its value is 1/10.

And the “Percent Increase Life Span” value [1, 19]?
Its value is 2%.

What about the “Indefinite Survivors” value [1, 19] of the same compound?
Its value is 0.

And the “Toxic Deaths” value [1, 19]?
Its value is 4/10.

And the “Percent Increase Life Span” value [1, 20]?
Its value is 74%.

What about the “Indefinite Survivors” value [1, 20] of the same compound?
The value was 0.

And the “Toxic Deaths” value [1, 20]?
The value was 0/10.

And the “Percent Increase Life Span” value [1, 21]?
Its value is 104%.

And the “Indefinite Survivors” value [1, 21]?
The value was 0.

And the “Toxic Deaths” value [1, 21]?
The value was 0/10.

And the “Percent Increase Life Span” value [1, 22]?
The value was 136%.

And the “Indefinite Survivors” value [1, 22]?
Its value is 0.

And the “Toxic Deaths” value [1, 22]?
The value was 0/10.

And the “Percent Increase Life Span” value [1, 23]?
Its value is 44%.

What about the “Indefinite Survivors” value [1, 23] of the same compound?
The value was 0.

What about the “Toxic Deaths” value [1, 23] of the same compound?
Its value is 0/10.

And the “Percent Inhibition of Tumor” value (CA755 adenocarcinoma; 1.25 mg/kg)?
Its value is 0%.

What about the “Toxic Deaths” value (CA755 adenocarcinoma; 1.25 mg/kg) of the same compound?
The value was 0/10.

And the “Percent Inhibition of Tumor” value (CA755 adenocarcinoma; 2.5 mg/kg)?
The value was 44%.

And the “Toxic Deaths” value (CA755 adenocarcinoma; 2.5 mg/kg)?
Its value is 0/10.

And the “Percent Inhibition of Tumor” value (CA755 adenocarcinoma; 5.0 mg/kg)?
The value was 85%.

What about the “Toxic Deaths” value (CA755 adenocarcinoma; 5.0 mg/kg) of the same compound?
The value was 0/10.

And the “Percent Inhibition of Tumor” value (CA755 adenocarcinoma; 10.0 mg/kg)?
The value was 86%.

And the “Toxic Deaths” value (CA755 adenocarcinoma; 10.0 mg/kg)?
Its value is 0/10.

What about the “Percent Inhibition of Tumor” value (CA755 adenocarcinoma; 20.0 mg/kg) of the same compound?
Its value is 94%.

What about the “Toxic Deaths” value (CA755 adenocarcinoma; 20.0 mg/kg) of the same compound?
Its value is 0/10.

What about the “Percent Inhibition of Tumor” value ([2]; 1.25 mg/kg) of the same compound?
Its value is 8%.

And the “Toxic Deaths” value ([2]; 1.25 mg/kg)?
Its value is 0/10.

And the “Percent Inhibition of Tumor” value ([2]; 2.5 mg/kg)?
Its value is 30%.

And the “Toxic Deaths” value ([2]; 2.5 mg/kg)?
The value was 0/10.

And the “Percent Inhibition of Tumor” value ([2]; 5.0 mg/kg)?
The value was 47%.

And the “Toxic Deaths” value ([2]; 5.0 mg/kg)?
The value was 0/10.

What about the “Percent Inhibition of Tumor” value ([2]; 10.0 mg/kg) of the same compound?
Its value is 71%.

And the “Toxic Deaths” value ([2]; 10.0 mg/kg)?
Its value is 2/10.

And the “Percent Inhibition of Tumor” value ([2]; 20.0 mg/kg)?
Its value is 92%.

What about the “Toxic Deaths” value ([2]; 20.0 mg/kg) of the same compound?
Its value is 1/10.

What about the “Percent Inhibition of Tumor” value ([3]; 1.25 mg/kg) of the same compound?
Its value is 11%.

And the “Toxic Deaths” value ([3]; 1.25 mg/kg)?
Its value is 1/10.

What about the “Percent Inhibition of Tumor” value ([3]; 2.5 mg/kg) of the same compound?
Its value is 52%.

What about the “Toxic Deaths” value ([3]; 2.5 mg/kg) of the same compound?
The value was 1/10.

What about the “Percent Inhibition of Tumor” value ([3]; 5.0 mg/kg) of the same compound?
Its value is 89%.

And the “Toxic Deaths” value ([3]; 5.0 mg/kg)?
Its value is 0/10.

And the “Percent Inhibition of Tumor” value ([3]; 10.0 mg/kg)?
The value was 98%.

And the “Toxic Deaths” value ([3]; 10.0 mg/kg)?
Its value is 0/10.

And the “Percent Inhibition of Tumor” value ([3]; 20.0 mg/kg)?
The value was 100%.

And the “Toxic Deaths” value ([3]; 20.0 mg/kg)?
Its value is 0/10.
